system: human neuroblastoma cell line (SH-SY5Y); experiment: Inhibition of noradrenaline (NA) release from human neuroblastoma cells, ELISA; type: cell-based; conditions: 1 mg/ml
Excerpt: Inhibition of noradrenaline release from human neuroblastoma cells.
Release of neurotransmitters by exocytosis in neuromuscular junctions from peripheral neurons to skeletal muscle allows muscle contraction. Face muscles are subject to said contraction and facial muscle contraction is more frequent around eyes, mouth and forehead than elsewhere in the face. With age, continuous release of neurotransmitters into neuromuscular junctions and decrease of elasticity contribute to the increase of facial wrinkles and permanent expression lines. Compounds able to block or decrease exocytosis on neuromuscular junction sites are thus good candidates for the cosmetic treatment of unaesthetic wrinkles. In vitro induction of the neurotransmitter Noradrenaline (NA) release in a human neuroblastoma cell line (SH-SY5Y) is considered a direct and reliable method for exocytosis measurement. The aim of this study is to evaluate the efficacy of the peptides of the invention on the inhibition of neuronal exocytosis by means of measuring the levels of NA release in SH-SY5Y cells by Enzyme-linked Immunosorbent Assay (ELISA).
SH-SY5Y (ECACC) cells are seeded in 12-well plates at a density of 1×10^6 cells/well. After a 6-day culture, medium is removed from wells and cells are treated for 60 minutes with the peptides of the invention dissolved in Hank’s Balanced Salt Solution (HBSS, Life Technologies) at 1 and 2.5 mg/ml. Cells treated with HBSS alone are used as a basal control. To mobilize NA vesicles, supernatants are removed and 100 nM Tetradecanoylphorbol-13-acetate (TPA, Sigma) is dissolved in the presence of test items in HBSS or dissolved in HBSS alone in the case of the basal control. After this, solutions with TPA are removed and NA release is induced by the addition of 10 µM lonomycin (Epica) with 100 nM TPA dissolved in the presence of test items in HBSS or dissolved in HBSS alone in the case of the basal control. Afterwards, the medium in the wells, containing released NA, is collected and centrifuged. Supernatants obtained are used for quantification of NA by ELISA with noradrenalin ELISA kit (IBL International) following manufacturer’s instructions. In brief, direct sandwich ELISA is performed with a plate pre-coated with an anti-NA antibody. The color obtained after substrate addition is directly proportional to the amount of NA present in each condition tested. Absorbance is read in a microplate absorbance reader (Clariostar™, BMG) at 405 nm. The percentage of NA release for each condition is calculated respect to basal control.

| Substance | % Released NA [%] |
| --- | --- |
| ARGIRELINE [Ac—Glu—Glu—Met—Gln—Arg—Arg, reference compound] | 79.6 |

same assay, conditions: 1 mg/ml; SH-SY5Y; respect to basal control; mean of 3 assays

| Substance | % Released NA [%] |
| --- | --- |
| Ac-L-Arg-L-Arg-D-Gln-D-Met-L-Glu-L-Glu-NH2 [PEP-24] | 65.8 |
| Ac-L-Arg-L-Arg-L-Gln-L-Met-L-Glu-L-Glu-NH2 [PEP-21] | 78.9 |

same assay, conditions: 2.5 mg/ml

| Substance | % Released NA [%] |
| --- | --- |
| ARGIRELINE [Ac—Glu—Glu—Met—Gln—Arg—Arg, reference compound] | 63.5 |

same assay, conditions: 2.5 mg/ml; SH-SY5Y; respect to basal control; mean of 3 assays

| Substance | % Released NA [%] |
| --- | --- |
| Ac-L-Arg-L-Arg-D-Gln-D-Met-L-Glu-L-Glu-NH2 [PEP-24] | 52.3 |
| Ac-L-Arg-L-Arg-L-Gln-L-Met-L-Glu-L-Glu-NH2 [PEP-21] | 43.8 |

system: collagen type I in primary human dermal fibroblasts (HDFn); experiment: Type I collagen synthesis on human dermal fibroblasts by ELISA; type: cell-based; conditions: 0.5 µg/ml; 48 hours
Excerpt: In vitro study of type I collagen synthesis on human dermal fibroblasts by Enzyme-Linked Immunosorbent Assay.
Collagen type I is the principal collagen of skin. This molecule, which is mainly produced by fibroblasts, is responsible for the strength and resiliency of this tissue. For this reason, in vitro quantification of collagen induction by cosmetic products on human dermal fibroblasts provides information about their potential anti-aging effects on the skin. Collagen induction by the peptides of the invention is evaluated with an Enzyme-Linked Immunosorbent Assay (ELISA). The aim of this study is to investigate the ability of a product to induce collagen type I synthesis in primary human dermal fibroblasts isolated from neonatal skin (HDFn).
HDFn (Cascade) are seeded at a density of 5×10^4 in 48-well plates. After 24-hour incubation, fresh medium with scalar dilutions of the test items at 0.5 µg/ml are added. Non-treated cells are used as basal control. The cells are treated for 48 hours. Then, the medium of the wells is collected and transferred into a 96-well plate. A standard calibration curve prepared with calf skin type I collagen (Sigma) is transferred into the plate as well. The plate is left overnight in order to coat type I collagen into its surface. After that, collagen I is detected with an anti-collagen type I antibody (Sigma). The primary antibody is then recognized by a secondary antibody IgG-HRP (molecular probes). 3,3,5,5-tetramethylbenzidine liquid substrate (TMB, Sigma) is added to measure the amount of secondary antibody attached. The color produced by this reaction is measured in a microtiter plate reader (Clariostar™, BMG) and type I collagen concentration is determined using a linear regression of the standard curve.

| Substance | % Collagen induction [%] |
| --- | --- |
| ARGIRELINE [Ac—Glu—Glu—Met—Gln—Arg—Arg, reference compound] | 109.8 |

same assay, conditions: 0.5 µg/ml; 48 hours; HDFn; versus non-treated cells; mean of 5 assays

| Substance | % Collagen induction [%] |
| --- | --- |
| Ac-L-Arg-L-Arg-D-Gln-D-Met-L-Glu-L-Glu-NH2 [PEP-24] | 104.7 |
| Ac-L-Arg-L-Arg-L-Gln-L-Met-L-Glu-L-Glu-NH2 [PEP-21] | 119.3 |

same assay, conditions: 0.5 µg/ml; HDFn

| Substance | Efficacy in increasing collagen type I compared with Argireline (in words) |
| --- | --- |
| Ac-L-Arg-L-Arg-L-Gln-L-Met-L-Glu-L-Glu-NH2 [PEP-21] | even higher |

system: Musclebind like protein 1 (MBNL1) in human skeletal muscle cells (hSkMc); experiment: Quantification of Musclebind like protein 1 in human skeletal muscle cells by TR-FRET; type: cell-based; conditions: not given
Procedure: In vitro quantification of Musclebind like protein 1 in human skeletal muscle cells by Time resolved fluorescence resonance energy transfer.
MBNL1 induction by the peptides of the invention is evaluated by a Time resolved fluorescence resonance energy transfer (TR-FRET) assay. The aim of this study is to investigate the capacity of peptide candidates to increase MBNL-1 in human skeletal muscle cells (hSkMc).
hSkMc (Innoprot) are seeded in 12-well plates at a density of 1.5×10^4 cells/well in Skeletal Muscle Cell Growth Medium (Promocell). After 72 hours incubation, medium is removed and replaced with Skeletal Muscle Cell Differentiation Medium (Promocell). 48 hours after beginning cell differentiation, fresh differentiation medium with 0.5 mg/ml of test items is added. Treatment is continued for 48 hours and non-treated cells are used as basal control. After 48 hours of treatment, cell medium is removed and cell lysis buffer is added to wells. Immediately, plates are kept at -80° C. in order to improve protein extraction during the defrosting process. After 72 hours, cells are lysed by shaking the plates in an orbital rotor at room temperature for 45 minutes. Next, cell lysates are collected and assayed to quantify the level of MBNL-1 protein and total protein concentration.
MBNL-1 protein levels measurement is performed with Human MBNL1 Assay Kit (Cisbio) according to the manufacturer’s protocol. Briefly, the kit is used to perform a TR-FRET for MBNL1 quantification. The protein is detected with the antibodies provided in the kit and quantified by a fluorescence measurement. The quantification is carried out by using a microplate reader (ClarioStar™™™, BMG) set to 665 nm and 620 nm.
Total protein concentration of cell lysate is determined by using Pierce BCA Protein Assay Kit (Thermo Scientific) according to manufacturer’s protocol. In brief, after adding Working Reagent to the samples and the standards, the samples are incubated. Afterwards, color change is measured with an absorbance microplate reader (Clariostar™, BMG) at 562 nm. The total protein amount is used to normalize the level of MBNL1 protein concentration obtained by the TR-FRET test in the samples.

| Substance | Effect on MBNL1 (in words) |
| --- | --- |
| ARGIRELINE [Ac—Glu—Glu—Met—Gln—Arg—Arg, reference compound] | no effect |

same assay, conditions: 0.5 mg/ml; 48 hours

| Substance | % MBNL1 vs basal level [%] |
| --- | --- |
| ARGIRELINE [Ac—Glu—Glu—Met—Gln—Arg—Arg, reference compound] | 96.6 |

same assay, conditions: 0.5 mg/ml; 48 hours; hSkMc; normalized to total protein

| Substance | % MBNL1 vs basal level [%] |
| --- | --- |
| Ac-L-Lys-L-Arg-L-Gln-D-Met-L-Glu-L-Glu-NH2 [PEP-36] | 117.6 |
| Ac-L-Arg-L-Arg-L-Asp-D-Met-L-Glu-L-Glu-NH2 [PEP-41] | 151.3 |
| H-L-Arg-L-Arg-L-Gln-D-Met-L-Glu-L-Glu-NH2 [PEP-27] | 144.2 |
| Ac-L-Arg-L-Arg-L-Gln-D-Met-L-Glu-L-Glu-OH [PEP-26] | 109.6 |
| Ac-L-Arg-L-Arg-L-Gln-D-Leu-L-Glu-L-Glu-NH2 [PEP-37] | 140.3 |
| Ac-L-Arg-L-Arg-L-Gln-D-Met-L-Asp-L-Glu-NH2 [PEP-30] | 160.0 |
| Ac-L-Arg-L-Arg-D-Gln-D-Met-L-Glu-L-Glu-NH2 [PEP-24] | 120.9 |
| Ac-L-Arg-L-Arg-L-Gln-D-Met-L-Glu-L-Gln-NH2 [PEP-31] | 161.3 |
| Ac-L-Ala-L-Arg-L-Arg-L-Gln-D-Met-L-Glu-L-Glu-L-Ala-NH2 [PEP-42] | 144.4 |
| Ac-L-Arg-L-Lys-L-Gln-D-Met-L-Glu-L-Glu-NH2 [PEP-35] | 144.3 |
| Ac-L-Arg-L-Arg-L-Gln-L-Met-L-Glu-L-Glu-NH2 [PEP-21] | 91.9 |
| Ac-L-Arg-L-Gln-D-Met-L-Glu-L-Glu-NH2 [PEP-43] | 112.4 |
| Ac-L-Arg-L-Arg-L-Gln-D-Met-L-Glu-NH2 [PEP-44] | 137.8 |

same assay, conditions: 0.5 mg/ml; hSkMc

| Substance | MBNL1 levels compared to the basal control and to Argireline (in words) |
| --- | --- |
| Ac-L-Lys-L-Arg-L-Gln-D-Met-L-Glu-L-Glu-NH2 [PEP-36] | increase MBNL1 levels |
| Ac-L-Arg-L-Arg-L-Asp-D-Met-L-Glu-L-Glu-NH2 [PEP-41] | increase MBNL1 levels |
| H-L-Arg-L-Arg-L-Gln-D-Met-L-Glu-L-Glu-NH2 [PEP-27] | increase MBNL1 levels |
| Ac-L-Arg-L-Arg-L-Gln-D-Met-L-Glu-L-Glu-OH [PEP-26] | increase MBNL1 levels |
| Ac-L-Arg-L-Arg-L-Gln-D-Leu-L-Glu-L-Glu-NH2 [PEP-37] | increase MBNL1 levels |
| Ac-L-Arg-L-Arg-L-Gln-D-Met-L-Asp-L-Glu-NH2 [PEP-30] | increase MBNL1 levels |
| Ac-L-Arg-L-Arg-D-Gln-D-Met-L-Glu-L-Glu-NH2 [PEP-24] | increase MBNL1 levels |
| Ac-L-Arg-L-Arg-L-Gln-D-Met-L-Glu-L-Gln-NH2 [PEP-31] | increase MBNL1 levels |
| Ac-L-Ala-L-Arg-L-Arg-L-Gln-D-Met-L-Glu-L-Glu-L-Ala-NH2 [PEP-42] | increase MBNL1 levels |
| Ac-L-Arg-L-Lys-L-Gln-D-Met-L-Glu-L-Glu-NH2 [PEP-35] | increase MBNL1 levels |
| Ac-L-Arg-L-Gln-D-Met-L-Glu-L-Glu-NH2 [PEP-43] | increase MBNL1 levels |
| Ac-L-Arg-L-Arg-L-Gln-D-Met-L-Glu-NH2 [PEP-44] | increase MBNL1 levels |

system: Musclebind like protein 1 (MBNL1) in human skeletal muscle cells (hSkMc); experiment: as above; type: cell-based; conditions: 1 mg/ml; 48 hours

| Substance | % MBNL1 vs basal level [%] |
| --- | --- |
| ARGIRELINE [Ac—Glu—Glu—Met—Gln—Arg—Arg, reference compound] | 86.9 |

Source: patent publication US20230190616A1, “COMPOUNDS USEFUL FOR THE TREATMENT AND/OR CARE OF THE SKIN, HAIR, NAILS AND/OR MUCOUS MEMBRANES” (LUBRIZOL ADVANCED MATERIALS, INC., priority 2018, published 2023)
